Measured values as given in patent US8865911B2, “Compounds and their use as BACE inhibitors” (Astrazeneca AB, priority 2010, dated 2014).

Tested on: sAPPβ release, SH-SY5Y cells
Assay: sAPPβ release assay
Type: cell-based
Settings: compounds incubated 17 h, MSD detection
Method: Thaw cells and seed at a conc. of around 10000 cells/well in DMEM/F-12 with Glutamax, 10% FCS and 1% non-essential amino acids to a 384-well tissue culture treated plate, 100 μL cell susp/well. […] The cell medium was removed, followed by addition of 30 μL compound diluted in DMEM/F-12 with Glutamax, 10% FCS, 1% non-essential amino acids and 1% PeSt to a final conc. of 1% DMSO. The compounds were incubated with the cells for 17 h (overnight) at 37° C., 5% CO2. Meso Scale Discovery (MSD) plates were used for the detection of sAPPβ release. MSD sAPPβ plates were blocked in 1% BSA in Tris wash buffer (40 μL/well) for 1 h on shake at r.t. and washed 1 time in Tris wash buffer (40 μL/well). 20 μL of medium was transferred to the pre-blocked and washed MSD sAPPβ microplates, and the cell plates were further used in an ATP assay to measure cytotoxicity. The MSD plates were incubated with shaking at r.t. for 2 h and the media discarded. 10 μL detection antibody was added (1 nM) per well followed by incubation with shaking at r.t. for 2 h and then discarded. 40 μL Read Buffer was added per well and the plates were read in a SECTOR Imager.

| SMILES | IC50 [nM] | further results |
| --- | --- | --- |
| CO[C@H]1CC[C@]2(CC1)Cc1ccc(-c3cc(Br)cc(C#N)c3)cc1C21N=C(C)C(N)=N1 (single isomer, unassigned; isomer 1) [Example 94 Isomer 1, 3-[(1r,4r)-4″-Amino-4-methoxy-5″-methyl-3′H-dispiro[cyclohexane-1,2′-indene-1′,2″-imidazol]-6′-yl]-5-bromobenzonitrile] | 0.17 | – |
| CC1=NC2(CC3(CCCOC3)Oc3ccc(-c4ccc(F)c(Cl)c4)cc32)N=C1N (single isomer, unassigned) [Example 46b Isomer 1, 6′-(3-Chloro-4-fluorophenyl)-5-methyl-5″,6″-dihydro-4′H-dispiro[imidazole-2,4′-chromene-2′,3″-pyran]-4-amine] | 426 | – |
| CO[C@H]1CC[C@]2(CC1)Cc1ccc(-c3cc(F)cc(C#N)c3)cc1C21N=C(C)C(N)=N1 (single isomer, unassigned; isomer 1) [Example 76 Isomer 1, 3-[(1r,4r)-4″-amino-4-methoxy-5″-methyl-3′H-dispiro[cyclohexane-1,2′-indene-1′,2″-imidazol]-6′-yl]-5-fluorobenzonitrile] | 1.2 | – |
| CCC1=NC2(N=C1N)c1cc(-c3cccc(C#N)c3)ccc1C[C@]21CC[C@@H](OC)CC1 (single isomer, unassigned) [Example 71 Isomer 1, 3-[(1r,4r)-4″-amino-5″-ethyl-4-methoxy-3′H-dispiro-[cyclohexane-1,2′-indene-1′,2″-imidazol]-6′-yl]benzonitrile] | – | IC50 (listed as 71 Isomer 1): 5.2 nM |
| CCC1=NC2(N=C1N)c1cc(-c3cncc(Cl)c3)ccc1C[C@]21CC[C@@H](OC)CC1 (single isomer, unassigned) [Example 66 Isomer 1, (1r,4r)-6′-(5-chloropyridin-3-yl)-5″-ethyl-4-methoxy-3′H-dispiro[cyclohexane-1,2′-indene-1′,2″-imidazol]-4″-amine] | – | IC50 (Homo sapiens, SH-SY5Y, 17 h): 1.6 nM |
